Test results published in patent publication US6768019B2 (Cheil Jedang Corporation, priority 2001, dated 2004).

Experiments:
[1] = target: T1, cyclooxygenase-1 (Mus musculus, UniProt P22437); test: Inhibition of cyclooxygenase-1 in mouse peritoneal macrophages (PGE2 ELISA); type: cell-based
T1 construct: endogenous in cells; host or cells: primary mouse peritoneal macrophages (unstimulated)
T1 sequence (P22437 27-602): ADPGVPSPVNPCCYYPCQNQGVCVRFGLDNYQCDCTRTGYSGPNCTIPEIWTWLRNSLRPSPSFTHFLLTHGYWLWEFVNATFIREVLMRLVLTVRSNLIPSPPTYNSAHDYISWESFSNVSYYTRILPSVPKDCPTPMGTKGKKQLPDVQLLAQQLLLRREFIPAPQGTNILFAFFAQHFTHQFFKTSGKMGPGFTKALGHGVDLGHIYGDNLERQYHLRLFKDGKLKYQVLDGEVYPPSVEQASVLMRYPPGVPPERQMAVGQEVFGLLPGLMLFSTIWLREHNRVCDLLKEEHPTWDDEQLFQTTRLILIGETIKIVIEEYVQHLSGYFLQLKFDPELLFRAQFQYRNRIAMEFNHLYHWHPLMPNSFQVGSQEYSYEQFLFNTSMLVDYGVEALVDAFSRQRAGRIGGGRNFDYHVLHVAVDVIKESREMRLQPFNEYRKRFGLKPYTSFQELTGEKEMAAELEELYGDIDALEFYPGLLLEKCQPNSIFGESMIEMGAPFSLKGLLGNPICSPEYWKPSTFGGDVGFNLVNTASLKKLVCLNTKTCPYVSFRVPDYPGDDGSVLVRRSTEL
Description: First of all, the cyclooxygenase-1 was examined through the following procedure.
Peritoneal fluid in which macrophages were suspended was extracted from a mouse peritoneal cavity and centrifuged at 4° C., 1,000 rpm for 2 minutes. Then, the supernatant was removed, suspended with 20 ml of incomplete (no serum) RPMI medium [PC/SM (penicilin/streptomycin)] and again centrifuged under the same condition. […] Then, the cell number was calculated with the hemocytometer and adjusted to reach 1×10^6 cells/ml of cell concentration in the final cell suspension. 100 μl of the resulting suspension was transferred into each well of 96-well plate and left at 37° C. in 5% CO2 with the incubator for about 2 hours in order to attach macrophages. […] The resulting cell was cultivated in the incubator at 37° C. in 5% CO2 for about 12˜16 hours. Then, arachidonic acid was added, adjusting to 10 μM of a final concentration and incubated at 37° C. for more 10 minutes and the supernatant of the reacted solution (˜180 μl) was recovered to finish the reaction.

[2] = target: T2, cyclooxygenase-2 (Mus musculus, UniProt Q05769); test: Inhibition of cyclooxygenase-2 in aspirin-pretreated, LPS-stimulated mouse peritoneal macrophages (PGE2 ELISA); type: cell-based
T2 construct: Peritoneal fluid suspended with macrophages was extracted from a mouse peritoneal cavity; endogenous in cells; host or cells: primary mouse peritoneal macrophages, pretreated with 500 uM aspirin and stimulated with 10 ug/ml LPS
T2 sequence (Q05769 18-604): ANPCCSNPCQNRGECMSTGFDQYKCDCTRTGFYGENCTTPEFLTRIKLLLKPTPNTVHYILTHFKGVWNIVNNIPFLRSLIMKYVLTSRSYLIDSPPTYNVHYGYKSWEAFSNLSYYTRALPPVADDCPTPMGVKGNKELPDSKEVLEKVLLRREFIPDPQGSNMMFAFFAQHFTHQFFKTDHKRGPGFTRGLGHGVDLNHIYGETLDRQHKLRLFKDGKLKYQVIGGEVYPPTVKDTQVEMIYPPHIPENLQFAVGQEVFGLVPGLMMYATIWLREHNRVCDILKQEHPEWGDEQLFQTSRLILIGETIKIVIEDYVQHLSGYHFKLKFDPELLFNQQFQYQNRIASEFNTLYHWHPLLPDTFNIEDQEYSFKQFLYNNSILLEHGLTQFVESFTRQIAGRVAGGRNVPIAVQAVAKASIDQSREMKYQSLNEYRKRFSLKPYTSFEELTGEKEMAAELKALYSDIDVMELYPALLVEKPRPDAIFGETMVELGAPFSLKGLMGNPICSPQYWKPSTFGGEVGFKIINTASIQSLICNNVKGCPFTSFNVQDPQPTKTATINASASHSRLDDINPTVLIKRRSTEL
Description: Second, the cyclooxygenase-2 was examined through the following procedure.
Peritoneal fluid suspended with macrophages was extracted from a mouse peritoneal cavity and centrifuged at 4° C., 1,000 rpm for 2 minutes. Then, the supernatant was removed, suspended using incomplete RPMI medium [PC/SM (penicilin/streptomycin)] and again centrifuged under the same condition. […] Then, the cell number was calculated with the hemocytometer and adjusted to reach 1×10^6 cells/ml of cell concentration in the final cell suspension. The resulting suspension was treated with aspirin, adjusting 500 μM of final concentration and transferred into each well of 96-well plate in 100 μl respectively. Again, it was left at 37° C. in 5% CO2 in the incubator for about 2 hours in order to attach macrophages. […] The resulting cell was cultivated in the incubator at 37° C. in 5% CO2 for about 12˜16 hours. Then, arachidonic acid was added, adjusting to 10 μM of a final concentration and incubated at 37° C. for more 10 minutes and the supernatant of the reacted solution (˜180 μl) was recovered to finish the reaction.

[3] = in words, versus comparative substance

Structure (SMILES) | Inhibitory effects of cyclooxygenase (COX), COX-1 ([1]; 3 μM) | Inhibitory effects of cyclooxygenase (COX), COX-1 ([1]; 10 μM) | Inhibitory effects of cyclooxygenase (COX), COX-1 ([1]; 30 μM) | Inhibitory effects of cyclooxygenase (COX), COX-2 ([2]; 30 nM) | Inhibitory effects of cyclooxygenase (COX), COX-2 ([2]; 100 nM) | Inhibitory effects of cyclooxygenase (COX), COX-2 ([2]; 300 nM) | inhibition effect against cyclooxygenase-1 compared with comparative substance [1, 3] | selectivity of cyclooxygenase-2 ([2]; in words, COX-2 over COX-1) | inhibition effect against cyclooxygenase-2 compared with comparative substance [2, 3]
CS(=O)(=O)c1ccc(/C=C2/C(=O)CCc3ccccc32)cc1 [Example 1, (E)-1-(4-methanesulfonyl-benzylidene)-3,4-dihydro-1H-naphthalene-2-one] | 33.2 % inhibition | 40.7 % inhibition | 45.8 % inhibition | ˜0 % inhibition | ˜0 % inhibition | ˜0 % inhibition |  |  | 
CS(=O)(=O)c1ccc(C=C2/C(=N/O)CCc3ccccc32)cc1 [Example 2, (E)-1-(4-methanesulfonyl-benzylidene)-3,4-dihydro-1H-naphthalene-2-one oxime] | 56.7 % inhibition | 68.7 % inhibition | 80.4 % inhibition | 15.7 % inhibition | 20.7 % inhibition | 22 % inhibition |  |  | 
CCO/N=C1\CCc2ccccc2C1=Cc1ccc(S(C)(=O)=O)cc1 [Example 3, (E)-1-(4-methanesulfonyl-benzylidene)-3,4-dihydro-1H-naphthalene-2-one O-ethyl Oxime] | 60.4 % inhibition | 64.4 % inhibition | 74.6 % inhibition | 50.1 % inhibition | 58.8 % inhibition | 70.2 % inhibition |  |  | 
CO/N=C1\CCc2ccccc2C1=Cc1ccc(S(C)(=O)=O)cc1 [Example 4, (E)-1-(4-methanesulfonyl-benzylidene)-3,4-dihydro-1H-naphthalene-2-one O-methyl Oxime] | 60.3 % inhibition | 71.1 % inhibition | 80.1 % inhibition | 55.4 % inhibition | 69.9 % inhibition | 81.5 % inhibition |  |  | 
CS(=O)(=O)c1ccc(C=C2/C(=N/OCc3ccccc3)CCc3ccccc32)cc1 [Example 5, (E)-1-(4-methanesulfonyl-benzylidene)-3,4-dihydro-1H-naphthalene-2-one O-benzyl Oxime] | 39.9 % inhibition | 47.1 % inhibition | 54.3 % inhibition | 51.2 % inhibition | 55.4 % inhibition | 61.4 % inhibition |  |  | 
CS(=O)(=O)c1ccc(-c2[nH]nc3c2-c2ccccc2CC3)cc1 [Example 6, 1-(4-methanesulfonyl-phenyl)-4,5-dihydro-2H-benzo[e]indazole] | 52.3 % inhibition | 57.3 % inhibition | 64.8 % inhibition | 33.4 % inhibition | 46.6 % inhibition | 54.9 % inhibition |  |  | 
CS(=O)(=O)c1ccc(-c2onc3c2-c2ccccc2CC3)cc1 [Example 7, 1-(4-methanesulfonyl-phenyl)-4,5-dihydro-naphto[2,1-c]isooxazole] | 30 % inhibition | 44.1 % inhibition | 56.4 % inhibition | 59.8 % inhibition | 70.6 % inhibition | 76.8 % inhibition | much lower level than a comparative substance | better than any other substances | more excellent than a comparative substance
CC(=O)O/N=C1\CCc2ccccc2C1=Cc1ccc(S(C)(=O)=O)cc1 [Example 8, (E)-1-(4-methanesulfonyl-benzylidene)-3,4-dihydro-1H-naphthalene-2-one O-acetyl-oxime] | 7.6 % inhibition | 32.3 % inhibition | 53.9 % inhibition | 22.1 % inhibition | 28.6 % inhibition | 29.6 % inhibition |  |  | 
CS(=O)(=O)c1ccc(C=C2/C(=N/OC(=O)COCc3ccccc3)CCc3ccccc32)cc1 [Example 9, (E)-1-(4-methanesulfonyl-benzylidene)-3,4-dihydro-1H-naphthalene-2-one O-benzyloxyacetyl-oxime] | 22.8 % inhibition | 31.1 % inhibition | 42.1 % inhibition | 20.4 % inhibition | 25.5 % inhibition | 30.1 % inhibition |  |  | 
Cn1nc2c(c1-c1ccc(S(C)(=O)=O)cc1)-c1ccccc1CC2 [Example 10, 1-(4-methanesulfonyl-phenyl)-2-methyl-4,5-dihydro-2H-benzo[e]imidazole] | 49.8 % inhibition | 55.3 % inhibition | 61.5 % inhibition | 20.2 % inhibition | 31.8 % inhibition | 61.0 % inhibition |  |  | 
